Source: ChEMBL document CHEMBL1140498, “Synthesis of novel anilinoquinolines as c-fms inhibitors” (Bioorg Med Chem Lett, 2007)
pIC50: −log10 of the molar value.

Experiments:
[1] = Growth inhibition of MCSF expressing mouse M-NSF60 cells
[2] = target: Macrophage colony-stimulating factor 1 receptor (Homo sapiens, UniProt P07333)
NSO = test: Growth inhibition of MCSF-independent mouse NSO cells
[3] = Plasma clearance in rat; assay type: ADME, organism-based
Rattus norvegicus = test: Antiinflammatory activity against carrageenan-induced paw edema in rat assessed as paw size at 40 mg/kg, iv relative to control; settings: read-out: Inhibition
[4] = Plasma clearance in rat at 3 mg/kg, iv; assay type: ADME, organism-based; set-up: dose 3 mg/kg, route intravenous

Chain of Macrophage colony-stimulating factor 1 receptor (P07333 whole entry): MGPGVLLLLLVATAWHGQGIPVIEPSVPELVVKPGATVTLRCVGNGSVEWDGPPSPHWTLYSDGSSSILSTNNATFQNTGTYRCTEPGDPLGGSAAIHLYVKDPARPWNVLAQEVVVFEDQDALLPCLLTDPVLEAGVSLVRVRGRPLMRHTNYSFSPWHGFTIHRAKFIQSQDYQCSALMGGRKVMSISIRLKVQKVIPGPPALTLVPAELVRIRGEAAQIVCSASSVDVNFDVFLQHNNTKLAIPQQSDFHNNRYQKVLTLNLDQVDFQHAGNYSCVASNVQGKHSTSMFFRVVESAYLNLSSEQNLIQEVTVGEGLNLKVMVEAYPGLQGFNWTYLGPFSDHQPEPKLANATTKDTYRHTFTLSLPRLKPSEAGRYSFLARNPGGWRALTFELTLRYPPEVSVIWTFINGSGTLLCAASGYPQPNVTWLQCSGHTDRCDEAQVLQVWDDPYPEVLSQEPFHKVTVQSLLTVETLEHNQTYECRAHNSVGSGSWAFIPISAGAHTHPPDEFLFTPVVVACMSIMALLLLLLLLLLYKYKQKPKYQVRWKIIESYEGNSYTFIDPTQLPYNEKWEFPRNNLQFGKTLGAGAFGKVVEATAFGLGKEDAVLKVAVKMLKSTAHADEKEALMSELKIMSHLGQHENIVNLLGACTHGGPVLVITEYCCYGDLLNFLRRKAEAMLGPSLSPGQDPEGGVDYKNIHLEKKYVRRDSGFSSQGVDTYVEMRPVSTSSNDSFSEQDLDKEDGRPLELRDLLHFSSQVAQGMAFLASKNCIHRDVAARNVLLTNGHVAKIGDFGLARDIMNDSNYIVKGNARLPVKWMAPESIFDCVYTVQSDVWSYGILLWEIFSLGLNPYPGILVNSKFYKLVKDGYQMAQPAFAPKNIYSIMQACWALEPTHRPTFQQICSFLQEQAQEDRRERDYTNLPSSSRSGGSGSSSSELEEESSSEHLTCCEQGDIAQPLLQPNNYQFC

SMILES	pIC50 [2]	clearance [3] [mL/min/kg]	pIC50 [1]	pIC50 (NSO)	inhibition in vivo at 40 mg/kg (Rattus norvegicus) [%]	clearance [4] [mL/min/kg]
Cc1ccc(Nc2c(C(N)=O)cnc3cc(-c4ccc(S(C)(=O)=O)cc4)ccc23)cc1F	7.20	–	5.49	< 4.70	–	–
Cc1ccc(-c2ccc3c(Nc4ccccc4)c(C(N)=O)cnc3c2)cc1	–	–	4.49	4.60	–	–
N#Cc1cccc(-c2ccc3c(Nc4ccccc4)c(C(N)=O)cnc3c2)c1	6.49	–	5.10	5.00	–	–
CS(=O)(=O)c1ccc(-c2ccc3c(Nc4ccccc4)c(C(N)=O)cnc3c2)cc1	7.80	–	7.00	4.70	–	–
CC(C)Oc1ccc(Nc2c(C(N)=O)cnc3cc(-c4ccncc4)ccc23)cc1F	–	–	5.10	4.89	–	–
NC(=O)c1cnc2cc(-c3ccncc3)ccc2c1Nc1ccc(F)cc1	7.00	–	6.10	< 4.40	–	–
NC(=O)c1cnc2cc(-c3ccncc3)ccc2c1Nc1ccccc1	–	39	6.10	4.92	95	–
CCOc1ccc(Nc2c(C(N)=O)cnc3cc(-c4ccncc4)ccc23)cc1F	–	–	5.40	< 4.80	–	–
CC(=O)Nc1ccc(-c2ccc3c(Nc4ccccc4)c(C(N)=O)cnc3c2)cc1	7.10	–	5.89	5.40	–	–
Cc1cc(Nc2c(C(N)=O)cnc3cc(-c4ccncc4)ccc23)ccc1F	7.30	–	6.00	< 4.30	–	–
NC(=O)c1cnc2cc(-c3ccccc3)ccc2c1Nc1ccccc1	–	–	5.00	4.49	–	–
NC(=O)c1cnc2cc(-c3ccc(C(=O)C4CC4)cc3)ccc2c1Nc1ccccc1	7.00	–	5.40	5.00	–	–
NC(=O)c1cnc2cc(-c3ccncc3)ccc2c1Nc1n[nH]c2ccccc12	6.49	–	6.10	< 4.30	–	–
NC(=O)c1cnc2cc(-c3ccc(C(=O)N4CCCCC4)cc3)ccc2c1Nc1ccccc1	7.80	–	6.40	5.10	–	–
NC(=O)c1cnc2cc(-c3ccncc3)ccc2c1Nc1ccc(F)c(F)c1	7.49	–	5.60	< 4.49	–	–
NC(=O)c1cnc2cc(-c3ccncc3)ccc2c1Nc1cccc2[nH]ncc12	6.80	–	5.89	< 4.49	–	–
CC(C)Oc1ccc(Nc2c(C(N)=O)cnc3cc(-c4ccncc4)ccc23)cc1	6.20	–	4.40	< 4.30	–	–
COc1ccc(Nc2c(C(N)=O)cnc3cc(-c4ccc(S(C)(=O)=O)cc4)ccc23)cc1Cl	–	–	7.00	4.89	–	–
Cc1ccc(Nc2c(C(N)=O)cnc3cc(-c4ccc(S(C)(=O)=O)cc4)ccc23)cc1C	8.10	–	7.00	5.00	–	51
NC(=O)c1cnc2cc(-c3ccc(F)cc3)ccc2c1Nc1ccccc1	7.49	–	4.60	4.60	–	–
NC(=O)c1cnc2cc(-c3ccc(C(=O)N4CCOCC4)cc3)ccc2c1Nc1ccccc1	7.10	–	6.70	5.10	–	–
CS(=O)(=O)Nc1ccc(-c2ccc3c(Nc4ccccc4)c(C(N)=O)cnc3c2)cc1	7.20	–	5.70	5.00	–	–
Cc1ccc(Nc2c(C(N)=O)cnc3cc(-c4ccncc4)ccc23)cc1F	7.10	–	5.30	< 4.70	–	–
NC(=O)c1cnc2cc(-c3ccc(N)cc3)ccc2c1Nc1ccccc1	–	–	5.80	5.00	–	–
NC(=O)c1cnc2cc(-c3ccc(C(=O)C4CCCC4)cc3)ccc2c1Nc1ccccc1	7.49	–	< 4.70	< 4.70	–	–
NC(=O)c1cnc2cc(-c3ccc(S(N)(=O)=O)cc3)ccc2c1Nc1ccccc1	7.10	–	5.49	4.89	–	–

The next lines start with results.

pIC50 [2]	clearance [3] [mL/min/kg]	SMILES	pIC50 [1]	pIC50 (NSO)	inhibition in vivo at 40 mg/kg (Rattus norvegicus) [%]	clearance [4] [mL/min/kg]
7.40	–	Cc1ccc(Nc2c(C(N)=O)cnc3cc(-c4ccncc4)ccc23)cc1Cl	6.80	< 4.49	–	–
6.80	–	Cc1cc(Nc2c(C(N)=O)cnc3cc(-c4ccncc4)ccc23)ccc1Cl	5.70	4.49	–	–
7.60	–	CS(=O)(=O)Cc1cccc(-c2ccc3c(Nc4ccccc4)c(C(N)=O)cnc3c2)c1	5.30	< 4.70	–	–
7.30	–	CS(=O)(=O)Cc1ccc(-c2ccc3c(Nc4ccccc4)c(C(N)=O)cnc3c2)cc1	5.80	5.10	–	–
6.70	–	CCS(=O)(=O)c1ccc(-c2ccc3c(Nc4ccccc4)c(C(N)=O)cnc3c2)cc1	6.10	5.10	–	–
7.10	–	Cc1ccc(Nc2c(C(N)=O)cnc3cc(-c4ccncc4)ccc23)cc1C	7.00	< 4.30	–	–
6.89	–	NC(=O)c1cnc2cc(-c3ccc(C(F)(F)F)cc3)ccc2c1Nc1ccccc1	4.80	4.70	–	–
7.40	–	COc1ccc(Nc2c(C(N)=O)cnc3cc(-c4ccncc4)ccc23)cc1F	6.49	4.49	–	–
7.00	–	COc1ccc(Nc2c(C(N)=O)cnc3cc(-c4ccc(S(C)(=O)=O)cc4)ccc23)cc1F	6.00	4.70	–	–
7.49	–	NC(=O)c1cnc2cc(-c3ccncc3)ccc2c1Nc1ccc(OC(F)(F)F)c(Cl)c1	< 4.70	< 4.49	–	–
7.49	–	COc1ccc(Nc2c(C(N)=O)cnc3cc(-c4ccncc4)ccc23)cc1Cl	6.70	< 4.30	–	–
7.20	–	CN(C)c1ccc(Nc2c(C(N)=O)cnc3cc(-c4ccncc4)ccc23)cc1	5.20	5.00	–	–
7.60	–	COc1ccc(-c2ccc3c(Nc4ccccc4)c(C(N)=O)cnc3c2)cc1	5.20	5.10	–	–
5.49	–	NC(=O)c1cnc2cc(-c3ccncc3)ccc2c1Nc1ccon1	< 4.30	4.40	–	–
6.80	–	CS(=O)(=O)c1ccc(-c2ccc3c(Nc4ccc(F)cc4)c(C(N)=O)cnc3c2)cc1	6.40	5.00	–	4.5
6.89	–	CSc1ccc(Nc2c(C(N)=O)cnc3cc(-c4ccncc4)ccc23)cc1	5.00	< 4.30	–	–
7.30	–	N#Cc1ccc(-c2ccc3c(Nc4ccccc4)c(C(N)=O)cnc3c2)cc1	5.40	4.49	–	–
6.70	–	CS(=O)(=O)c1ccc(-c2ccc3c(Nc4ccc(F)c(F)c4)c(C(N)=O)cnc3c2)cc1	5.70	< 4.70	–	–
7.80	–	NC(=O)c1cnc2cc(-c3ccc(Br)cc3)ccc2c1Nc1ccccc1	4.30	4.30	–	–
7.20	–	COc1ccc(Nc2c(C(N)=O)cnc3cc(-c4ccncc4)ccc23)cc1	6.10	4.80	–	–
7.40	–	CN(C)c1ccc(-c2ccc3c(Nc4ccccc4)c(C(N)=O)cnc3c2)cc1	5.20	4.49	–	–
